Assays:
Assay in all cases: relative viability (nuclei count vs DMSO), 5 days (fraction); higher = more cells survive
[1] = compound: Cn1cc(-c2cnc3ccc4ccc(CS(=O)(=O)NCc5ccccn5)cc4c(=O)c3c2)cn1 [MK-8033] + CC1(C)CCC(c2ccc(Cl)cc2)=C(CN2CCN(c3ccc(C(=O)NS(=O)(=O)c4ccc(N[C@H](CCN5CCOCC5)CSc5ccccc5)c(S(=O)(=O)C(F)(F)F)c4)cc3)CC2)C1 [Navitoclax] (partner 0.5 µM)
How it was run: (§1)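 Medians of duplicate plates are given as relative viability. That measure is the nuclei count in treated wells divided by the count in vehicle wells. Counts were taken on 4× images of lung cancer cell lines in 1536-well plates, 5 days after pin-tool dosing the day after seeding with one drug alone or a fixed anchor-drug dose plus five library-drug doses (not always all listed) in √10 steps.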

[2] = compound: CCc1c2c(nc3ccc(OC(=O)N4CCC(N5CCCCC5)CC4)cc13)-c1cc3c(c(=O)n1C2)COC(=O)[C@]3(O)CC [Irinotecan] + Cc1cc(Nc2cc(N3CCN(C)CC3)nc(Sc3ccc(NC(=O)C4CC4)cc3)n2)n[nH]1 [Tozasertib] (partner 0.1 µM)
How it was run: as §1

[3] = compound: CCc1c2c(nc3ccc(OC(=O)N4CCC(N5CCCCC5)CC4)cc13)-c1cc3c(c(=O)n1C2)COC(=O)[C@]3(O)CC [Irinotecan] + CC(C)C[C@H](NC(=O)[C@H](Cc1ccccc1)NC(=O)c1cnccn1)B(O)O [Bortezomib] (partner 0.002 µM)
How it was run: as §1

[4] = compound: Cn1cc(-c2cnc3ccc4ccc(CS(=O)(=O)NCc5ccccn5)cc4c(=O)c3c2)cn1 [MK-8033] + Nc1nc2[nH]cc(CCc3ccc(C(=O)N[C@@H](CCC(=O)O)C(=O)O)cc3)c2c(=O)[nH]1 [Pemetrexed] (partner 0.2 µM)
How it was run: as §1

Cell Line	relative viability ([1]; first compound 0.02 µM)	relative viability ([1]; first compound 0.06325 µM)	relative viability ([1]; first compound 0.2 µM)	relative viability ([1]; first compound 0.6325 µM)	relative viability ([1]; first compound 2 µM)	relative viability ([2]; first compound 2 µM)	relative viability ([2]; first compound 6.325 µM)	relative viability ([2]; first compound 20 µM)	relative viability ([3]; first compound 0.6325 µM)	relative viability ([3]; first compound 2 µM)	relative viability ([3]; first compound 6.325 µM)	relative viability ([3]; first compound 20 µM)	relative viability ([4]; first compound 0.02 µM)	relative viability ([4]; first compound 0.06325 µM)	relative viability ([4]; first compound 0.2 µM)	relative viability ([4]; first compound 0.6325 µM)	relative viability ([4]; first compound 2 µM)	relative viability ([2]; first compound 0.6325 µM)
PC-14	0.96	0.944	0.987	1.06	1.02	0.51	0.19	0.174	0.831	0.802	0.178	0.158	0.143	0.121	0.142	0.149	0.135	
HCC-827	0.963		0.939	0.918	0.984	0.307	0.249	0.175	1.03	0.923	0.639	0.416	0.232		0.257	0.267	0.243	0.318
LCLC-97TM1	0.402	0.506	0.396	0.398	0.401	0.176	0.125	0.113	0.41	0.387	0.148	0.176	0.165	0.134		0.201	0.173	0.14
EMC-BAC-2	1.16	1.06	1.12	1.14	1.15	0.269	0.259	0.406	0.952	0.717	0.242	0.218	0.453	0.406	0.46	0.419	0.439	0.263
NCI-H647	1.11	1.01	1.09	1.04	0.999	0.294	0.151	0.0868	0.76	0.462	0.227	0.103	0.199	0.166	0.165	0.185	0.172	0.24
PC-3 [JPC-3]	0.746		0.775	0.726	0.749	0.81	0.363	0.314	0.703	0.826	0.579	0.296	1.07		0.99	1.1	1.07	0.78
SK-LU-1	0.808	0.798	0.792	0.919	0.807	0.295	0.26	0.285	0.887	0.672	0.291	0.47	0.974	0.944	0.929	0.625	0.956	0.315
NCI-H1975	1.12	0.92	1.08	1.08	1.07	0.726	0.354	0.199	0.294	0.31	0.278	0.129	0.263	0.259	0.276	0.281	0.288	0.929

— the supplement of paper PMC10307832
